From BindingDB's records for doi:10.7270/Q2319T8T (The Scripps Research Institute Molecular Screening Center, 2007) come the findings set out here.

One may read the IC50 as the concentration that inhibits the measured activity by half. Read a high IC50 as weaker potency.

The target of the first test is Steroidogenic factor 1 (Homo sapiens, UniProt Q13285). Put plainly: blockers of SF-1 LBD reporter transcription – cell-based, CHO-K1, Gal4-SF-1 LBD, luciferase luminescence, dose response (AID 600).
Steroidogenic factor 1, sequence (Q13285 whole entry, the tested form may be a part): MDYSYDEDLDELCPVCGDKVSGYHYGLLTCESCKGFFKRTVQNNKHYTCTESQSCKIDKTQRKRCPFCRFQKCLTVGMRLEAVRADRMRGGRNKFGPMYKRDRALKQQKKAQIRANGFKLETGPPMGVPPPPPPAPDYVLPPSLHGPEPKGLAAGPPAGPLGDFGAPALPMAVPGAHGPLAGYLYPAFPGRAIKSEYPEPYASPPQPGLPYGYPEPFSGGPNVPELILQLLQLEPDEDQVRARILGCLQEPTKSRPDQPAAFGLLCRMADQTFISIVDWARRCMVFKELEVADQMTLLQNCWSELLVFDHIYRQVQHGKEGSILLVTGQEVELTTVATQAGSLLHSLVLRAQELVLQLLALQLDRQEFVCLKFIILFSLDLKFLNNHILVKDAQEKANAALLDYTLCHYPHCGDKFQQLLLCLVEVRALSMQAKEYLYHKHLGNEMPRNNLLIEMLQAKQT
Conditions: not given
Turning to `c1ccc(-c2noc(-c3ccc4ccccc4c3)n2)cc1` [5-(2-naphthalenyl)-3-phenyl-1,2,4-oxadiazole], the IC50 is 8.89 µM.
The same measure, in the same setting: the value for `COc1ccccc1-c1nnc2n1N=C(c1ccc(O)c(O)c1)CS2` [(4E)-4-[3-(2-methoxyphenyl)-5H-[1,2,4]triazolo[3,4-b][1,3,4]thiadiazin-6-ylidene]-2-oxidanyl-cyclohexa-2,5-dien-1-one] was 10.4 µM; that for `COc1ccc(OC)c(NC(=O)CSc2nnnn2-c2ccc3c(c2)OCO3)c1` [2-(1-Benzo[1,3]dioxol-5-yl-1H-tetrazol-5-ylsulfanyl)-N-(2,5-dimethoxy-phenyl)-acetamide] was 2.35 µM; that for `O=C(CSc1nnc(COc2cccc3cccnc23)o1)N1CCc2ccccc21` [1-(2,3-Dihydro-indol-1-yl)-2-[5-(quinolin-8-yloxymethyl)-[1,3,4]oxadiazol-2-ylsulfanyl]-ethanone] was 4.4 µM.
`Oc1c(CN2CCCCC2)cc(Br)c2cccnc12` [5-bromanyl-7-(piperidin-1-ylmethyl)quinolin-8-ol] gave an IC50 of over 3.67 µM.
`CCOc1ccc(Nc2cc(C)nc(-n3nc(C)cc3C)n2)cc1` [2-(3,5-dimethyl-1-pyrazolyl)-N-(4-ethoxyphenyl)-6-methyl-4-pyrimidinamine] displayed an IC50 of 7.83 µM.
In the case of `CCOC(=O)C(C)Oc1cccc2c(=O)n(CC(=O)NCc3ccc4c(c3)OCO4)ccc12` (centres undefined) [ethyl 2-[(2-{[(2H-1,3-benzodioxol-5-ylmethyl)carbamoyl]methyl}-1-oxo-1,2-dihydroisoquinolin-5-yl)oxy]propanoate], it took 0.315 µM to reach half-maximal inhibition (IC50).
On the same count and under the same terms, the value for `Cc1oc2cc3c(C(=O)OCCN(C)C)c(C)oc3cc2c1C(=O)OCCN(C)C` [2,6-Dimethyl-benzo[1,2-b;4,5-b']difuran-3,7-dicarboxylic acid bis-(2-dimethylamino-ethyl) ester] was 0.813 µM; that for `c1ccc2c(c1)CCN(c1nc3cc4c(cc3s1)OCCO4)C2` [2-(3,4-dihydro-1H-isoquinolin-2-yl)-6,7-dihydro-[1,4]dioxino[2,3-f][1,3]benzothiazole] was 5.34 µM.
On the same count and under the same terms, under `[H][C@@]12C[N@@](CCc3c([nH]c4ccccc34)[C@@](C(=O)OC)(c3cc4c(cc3OC)N(C=O)[C@]3([H])[C@]45CC[N@@]4CC=C[C@@](CC)([C@@H](OC(C)=O)[C@]3(O)C(=O)OC)[C@]45[H])C1)C[C@](O)(CC)C2` stands 3.56 µM; under `Cc1nc(N2CCN(c3ccccc3)CC2)nc(O)c1Cc1cccc2ccccc12` [MLS000084491], over 3.67 µM.
On the same count and under the same terms, under `CCOC(=O)c1[n-]c2ccccc2c1[N+]#N` [(Z)-(3-diazonio-2-indolylidene)-ethoxymethanolate] stands 11.3 µM; under `CC1CCCN(c2ncnc3c2cnn3-c2ccc(Cl)cc2)C1` (centres undefined) [1-(4-chlorophenyl)-4-(3-methyl-1-piperidinyl)pyrazolo[3,4-d]pyrimidine], under 0.00503 µM; under `CN(C)C(=O)CCc1nc(-c2ccc(C(C)(C)C)cc2)no1` [3-[3-(4-tert-butylphenyl)-1,2,4-oxadiazol-5-yl]-N,N-dimethyl-propanamide], 0.993 µM.
As for `O=S1(=O)C=C(Sc2nc3cc(Cl)ccc3o2)c2ccccc21` [SMR000019512], the IC50 stood at 5.11 µM.
The same measure, in the same setting: the value for `COC(=O)c1sc(NC(=O)c2ccc(OC)cc2OC)nc1C` [2-[(2,4-dimethoxybenzoyl)amino]-4-methyl-thiazole-5-carboxylic acid methyl ester] was 2.86 µM; that for `O=C1c2ccccc2C(=O)C1c1nccc2ccccc12` [2-(1-isoquinolinyl)indene-1,3-dione] was 4.03 µM; that for `O=C(NCc1ccco1)c1ccc2nc3sc4c(c3c(=O)n2c1)CCCC4` [MLS000091875] was over 3.67 µM.
`Clc1ccc(OCCN2CCN(c3ncnc4sccc34)CC2)cc1` [4-[4-[2-(4-chloranylphenoxy)ethyl]piperazin-1-yl]thieno[2,3-d]pyrimidine] showed a 50% inhibitory concentration (IC50) of 3.44 µM.
As for `COc1ccc(-c2noc(CCCC(=O)NCCc3ccccc3)n2)cc1OC` [4-[3-(3,4-dimethoxyphenyl)-1,2,4-oxadiazol-5-yl]-N-(2-phenylethyl)butanamide], inhibition was half-maximal at 4.15 µM (IC50).
In turn, `c1ccc(N2CCN(c3nc(-c4ccccn4)nc4ccccc34)CC2)cc1` [4-(4-phenyl-1-piperazinyl)-2-(2-pyridinyl)quinazoline] registered an IC50 of 5.65 µM.
Compound `COc1ccc(-n2ncc3c(N4CCCCC4)ncnc32)cc1` [1-(4-methoxyphenyl)-4-(1-piperidinyl)pyrazolo[3,4-d]pyrimidine] yielded an IC50 of 1.77 µM.
For the compound `CCOc1ccc(-c2nc(CSCC(=O)NCc3ccco3)c(C)o2)cc1` [2-({[2-(4-ethoxyphenyl)-5-methyl-1,3-oxazol-4-yl]methyl}thio)-N-(2-furylmethyl)acetamide], the IC50 came out at 0.189 µM.
Turning to `COc1ccc(OCc2cccc(C(=O)O)c2)cc1` [3-[(4-methoxyphenoxy)methyl]benzoic acid], the IC50 is 0.421 µM.
Same read-out and setting: under `O=C(Nc1nc2cc3c(cc2s1)OCO3)C1=COCCO1` [MLS000103798] stands 3.7 µM; under `COC(=O)c1nn(-c2ccc(-c3ccccc3)cc2)cc1O` [4-hydroxy-1-(4-phenylphenyl)-3-pyrazolecarboxylic acid methyl ester], over 33 µM; under `COc1cc(NS(=O)(=O)c2ccc(C)cc2)c2ncccc2c1` [SMR000071147], over 3.67 µM.
The same measure, in the same setting: under `c1ccc(-c2ccc(-c3ccccn3)nn2)nc1` [3,6-bis(2-pyridinyl)pyridazine] stands over 11 µM; under `CCc1ccc(-c2nnn(CCC(=O)OC)n2)cc1`, 6.69 µM; under `COc1cc(C2c3ccc(N)cc3OC(=N)C2C#N)cc(OC)c1OC` (centres undefined) [2,7-bis(azanyl)-4-(3,4,5-trimethoxyphenyl)-4H-chromene-3-carbonitrile], 7.92 µM.
As for `COc1ccc(C(=O)Nn2c(SCC(=O)NCc3ccco3)nc3ccccc3c2=O)cc1` [MLS000097349], the IC50 turned out to be 5.75 µM.
`CCCCS(=O)(=O)/C=C\C=C/S(=O)(=O)CCCC` [SMR000020833]: the IC50 came to 1.3 µM.
In the case of `Cc1ccc(C(=O)CC=Nc2ccccn2)cc1` [(E)-1-(4-methylphenyl)-3-(2-pyridinylamino)-2-propen-1-one], the IC50 is over 11 µM.
In turn, `COc1ccc(OC)c(Nc2nc(-c3ccc(O)c(O)c3)cs2)c1` [4-[2-(2,5-Dimethoxy-phenylamino)-thiazol-4-yl]-benzene-1,2-diol] registered an IC50 of over 3.67 µM.
With `O=C(CC=Nc1ccccn1)c1ccc(Cl)cc1` [(Z)-1-(4-chlorophenyl)-3-(2-pyridinylamino)-2-propen-1-one], the concentration for half-maximal inhibition (IC50) was 6.09 µM.
`Fc1ccc2[nH]c3c(N4CCN(Cc5ccc6c(c5)OCO6)CC4)ncnc3c2c1` [4-[4-(1,3-benzodioxol-5-ylmethyl)-1-piperazinyl]-8-fluoro-5H-pyrimido[5,4-b]indole]: 7.8 µM corresponded to half-maximal inhibition (IC50).
The compound `CCNC(=O)CCc1nc(-c2ccc(C(C)(C)C)cc2)no1` [3-[3-(4-tert-butylphenyl)-1,2,4-oxadiazol-5-yl]-N-ethyl-propanamide] returned an IC50 of 0.0401 µM.
Still for that read-out and setting: under `Cc1ccc(S(=O)(=O)Nc2cccc3ncccc23)s1` [5-methyl-N-quinolin-5-ylthiophene-2-sulfonamide] stands 5.75 µM; under `Cc1cc(C)n(-c2nc(NC(C)(C)C)nc(NC(C)(C)C)n2)n1` [2-N,4-N-ditert-butyl-6-(3,5-dimethylpyrazol-1-yl)-1,3,5-triazine-2,4-diamine], 8.2 µM; under `COc1cc(CN=O)ccc1OCc1ccc(C(=O)O)cc1` [4-[[4-(hydroximinomethyl)-2-methoxy-phenoxy]methyl]benzoic acid], 1.16 µM.
In the case of `O=S(=O)(NCc1ccncc1)c1ccc(Br)s1` [5-bromanyl-N-(pyridin-4-ylmethyl)thiophene-2-sulfonamide], half-maximal inhibition (IC50) required 0.108 µM.
In turn, `C/C(Cl)=C\Cn1c(NCCc2ccccc2)nc2c1c(=O)n(C)c(=O)n2C` [SMR000044779] gave a 50% inhibitory concentration (IC50) of over 11 µM.
Compound `O=C(Nc1ccc(N2CCOCC2)cc1)c1cnsn1` [MLS000063695] came in with an IC50 of 4.09 µM.
Same read-out and setting: the value for `COc1ccc(CC(=O)Nc2ccc(-c3nnc(-c4ccccc4)o3)cc2)cc1OC` [2-(3,4-dimethoxyphenyl)-N-[4-(5-phenyl-1,3,4-oxadiazol-2-yl)phenyl]acetamide] was 2.44 µM; that for `Cc1cccc2cc(C#N)c(SCC(=O)N3CC(=O)Nc4ccccc43)nc12` [2-[[2-keto-2-(3-keto-2,4-dihydroquinoxalin-1-yl)ethyl]thio]-8-methyl-quinoline-3-carbonitrile] was over 3.67 µM.
Compound `Cc1sc(NC(=O)c2ccco2)c(C(c2cccnc2)N2CCN(c3ccc(F)cc3)CC2)c1C` (centres undefined) [MLS000114428] came in with an IC50 of over 11 µM.

The test is the same for the next values; noted with them: inactive by the depositor's call.
The compound `Oc1ccc(N2CCN(c3ncnc4sc5c(c34)CCC5)CC2)cc1` [4-[4-(7,8-dihydro-6H-cyclopenta[4,5]thieno[1,2-c]pyrimidin-1-yl)-1-piperazinyl]phenol] registered an IC50 of 13.7 µM.
As for `CCOC(=O)N1CCC(NC(=O)C2CCCN(Cc3nc(-c4cccc(Cl)c4)oc3C)C2)CC1` (centres undefined) [4-[[1-[[2-(3-chlorophenyl)-5-methyl-oxazol-4-yl]methyl]nipecotoyl]amino]piperidine-1-carboxylic acid ethyl ester], the IC50 came out at 11.3 µM.
In turn, `COc1ccc(CCNc2c(C)c(C)nc3ncnn23)cc1` [(5,6-Dimethyl-[1,2,4]triazolo[1,5-a]pyrimidin-7-yl)-[2-(4-methoxy-phenyl)-ethyl]-amine] came in with an IC50 of 15.1 µM.
The same measure, in the same setting: the value for `COc1cc2c(C#N)c(N3CCN(c4ccccc4OC)CC3)nc(N)c2c(N)n1` [1,8-diamino-6-methoxy-3-(4-(2-methoxyphenyl)piperazin-1-yl)-2,7-naphthyridine-4-carbonitrile] was 29.7 µM; that for `CCN(C(=O)c1ccc(C(C)(C)C)cc1)c1nnc(Cn2nnc3ccccc32)s1` [MLS000072751] was 10.4 µM.
In turn, `CC(=O)c1c(C)[nH]c(C(=O)Nc2ccc(C)cn2)c1C` [SMR000026816] gave a half-maximal inhibitory concentration (IC50) of 14.2 µM.
The same measure, in the same setting: under `COc1ccc(Nc2cc(C)nc(-n3nc(C)cc3C)n2)cc1` [2-(3,5-dimethyl-1-pyrazolyl)-N-(4-methoxyphenyl)-6-methyl-4-pyrimidinamine] stands 12.5 µM.
Same read-out and setting: the value for `CCCCOc1ncnc2c1[nH]c1ccc(F)cc12` [4-butoxy-8-fluoranyl-5H-pyrimido[5,4-b]indole] was 11.4 µM.
